This data set can be described thus: solvent given as SMILES.

Molecules are shown by their SMILES.

With `CC(C)(C)c1cccc2c1oc1nc3oc4cc(-n5c6ccccc6c6ccccc65)ccc4c3cc12`, where the note is “in ClC(Cl)Cl”, the emission maximum stood at 397 nm.

`Cc1ccc2c(c1)c1cc(C)ccc1n2-c1c(-n2c3ccccc3c3ccccc32)c(C#N)c(-n2c3ccccc3c3ccccc32)c(-n2c3ccc(C)cc3c3cc(C)ccc32)c1-n1c2ccccc2c2ccccc21` came in with an emission maximum (in Cc1ccccc1) of 480 nm.

For `O=C(O)CCCc1ccc2ccc3cccc4ccc1c2c34`, the emission maximum (in CO) is given as 375 nm.

For the setting “in C1COCCO1”, `CC(=O)Nc1ccc(C2=C/C(=C\c3ccc(C#N)cc3)C(=O)N2)cc1` yielded an emission maximum of 584 nm.

With `N#Cc1c(-n2c3ccccc3c3ccccc32)c(C#N)c(-n2c3ccccc3c3ccccc32)c(-n2c3ccccc3c3ccccc32)c1-n1c2ccccc2c2ccccc21`, under “in Cc1ccccc1”, the emission maximum was determined as 507 nm.

Turning to `CCn1c2ccccc2c2cc(-c3cc(-c4ccc5c(c4)c4ccccc4n5CC)nc(-c4ccc(OC)cc4)n3)ccc21`, the emission maximum is, setting by setting: (in C1CCOC1) 385 nm; (in CCOC(C)=O) 384 nm; (in CN(C)C=O) 414 nm; (in Cc1ccccc1) 379 nm; (in ClCCl) 404 nm.

As to `CN(C)c1ccc(C(=O)Nc2cccc(Cl)c2)cc1`, the emission maximum is on record as 338 nm (in C1CCCCC1), 455 nm (in C1CCOC1), 496 nm (in CC#N) and 445 nm (in CCOCC).

Under “in C1CCOC1”, `C1=Cc2ccccc2C(=Cc2ccc(-c3ccc(C=C4c5ccccc5C=Cc5ccccc54)cc3)cc2)c2ccccc21` displayed an emission maximum of 405 nm.

Take `CCCCCCN1C(=O)c2cccc3cc(/N=C\c4ccc5c(c4)c4ccccc4n5CC)cc(c23)C1=O`: the emission maximum (in ClC(Cl)Cl) was 501 nm.

For `Cc1cc(-c2nnc(-c3ccccc3)o2)ccc1-n1c2ccccc2c2ccccc21`, the emission maximum reads like this: (in CCO) 445 nm; (in Cc1ccccc1) 382 nm.

On to `CC1=[N+]2C(=C(c3ccccc3)c3c4c(c(C)n3[B-]2(F)F)C2CCC4CC2)C2=C1C1CCC2CC1`, for which the emission maximum (in CC#N) is listed as 543 nm.

For the setting “in Cc1ccccc1”, `COc1ccccc1C1=[N+]2C(=Nc3c(-c4ccccc4)cc(-c4ccccc4OC)n3[B-]2(F)F)C(c2ccccc2)=C1` yielded an emission maximum of 688 nm.

`CCCCCCCCc1ccc(-c2c3cc(-c4cc(CCCCCCCC)c(-c5ccc(-c6sc(/C=C7\SC(N8CCCCC8)=NC7=O)cc6CCCCCCCC)s5)s4)sc3c(-c3ccc(CCCCCCCC)s3)c3cc(-c4cc(CCCCCCCC)c(-c5ccc(-c6sc(/C=C7\SC(N8CCCCC8)=NC7=O)cc6CCCCCCCC)s5)s4)sc23)s1` displayed an emission maximum (in ClC(Cl)Cl) of 576 nm.

For `CCCCN(CCCC)c1ccc(/C=C/c2ccc3nc(/C=C/c4ccc(N(C)C)cc4)c(=O)n(CCC)c3c2)cc1`, the emission maximum is on record as 559 nm (in C1COCCO1), 651 nm (in CC#N) and 611 nm (in ClCCl).

As to `CCCCC(CC)Cn1c2ccc(C(=C(C#N)C#N)c3ccccc3)cc2c2c(-c3ccc(Br)cc3)c3c(c(-c4ccc(Br)cc4)c21)c1cc(C(=C(C#N)C#N)c2ccccc2)ccc1n3CC(CC)CCCC` (centres undefined), the emission maximum is, setting by setting: (in C1CCOC1) 584 nm; (in CC#N) 536 nm; (in CCO) 576 nm; (in CCOC(C)=O) 582 nm; (in CN(C)C=O) 535 nm; (in Cc1ccccc1) 540 nm. In addition, the emission maximum runs as follows: (in ClCCl) 597 nm; (in c1ccccc1) 543 nm.

Where the note is “in Cc1ccccc1”, `c1cc2ccc3ccc4cc3c2cc1c1ccc2ccc3ccc(cc3c2c1)c1ccc2c(c1)c1cc4ccc1[C@]13OCCO[C@]21OCCO3` displayed an emission maximum of 421 nm.

In turn, `CCOC(=O)CSc1nc2c(c(C#N)c1C#N)CCCC2` displayed an emission maximum (in c1ccccc1) of 407 nm.

As to `CSc1cc(-c2cc3cc4c5c(c3oc2=O)CCCN5CCC4)oc(=O)c1C#N`, the emission maximum (in C1CCOC1) turned out to be 580 nm; the emission maximum (in CC#N) is 603 nm; the emission maximum (in CC(C)=O) came out at 596 nm; the emission maximum (in CCOC(C)=O) was 575 nm; the emission maximum (in CN(C)C=O) is 612 nm; the emission maximum (in CO) was 601 nm. For the same molecule, the emission maximum reads like this: (in CS(C)=O) 616 nm; (in Cc1ccccc1) 553 nm; (in ClC(Cl)Cl) 570 nm; (in ClCCl) 586 nm.

In the case of `CC(C)(C)c1ccccc1N(c1ccccc1)c1ccc(S(=O)(=O)c2ccc(S(=O)(=O)c3ccc(N(c4ccccc4)c4ccccc4C(C)(C)C)cc3)cc2)cc1`, the emission maximum reads like this: (in Cc1ccccc1) 444 nm; (in c1cc(-n2c3ccccc3c3ccccc32)nc(-n2c3ccccc3c3ccccc32)c1) 465.06 nm.

`COc1ccc(-c2cnc3nn4ccccc4c3n2)cc1`: the emission maximum (in C1CCOC1) is reported as 455 nm.

With `N#Cc1ccc(/C=C/C(F)(F)F)c(N)c1`, the emission maximum (in C1CCOC1) is 439 nm.

`COc1nc(Nc2ccc3ccc4cccc5ccc2c3c45)nc(OC)n1`: the emission maximum (in CC#N) stood at 390 nm, the emission maximum (in CCCCOCCCC) was 388 nm and the emission maximum (in CO) was 388 nm.

The molecule `CCOC(=O)c1ccc(C2=CC3=c4cc(-c5ccc(C(=O)OCC)cc5)c5nc(C(F)(F)C(F)(F)C(F)(F)F)nc6c(-c7ccc(C(=O)OCC)cc7)cc(c4c65)C4=CC(c5ccc(C(=O)OCC)cc5)=C5N=C(C(F)(F)C(F)(F)C(F)(F)F)N=C2C5C43)cc1` (centres undefined) showed an emission maximum (in C1CCOC1) of 523 nm.

In turn, `C(=C\c1cc(-c2ccc3ccccc3c2)c(/C=C/c2ccc(N(c3ccccc3)c3ccccc3)cc2)cc1-c1ccc2ccccc2c1)/c1ccc(N(c2ccccc2)c2ccccc2)cc1` displayed an emission maximum (in ClCCl) of 489 nm.

With `O=C1Nc2ccccc2/C1=C/C(=O)c1ccccc1`, the emission maximum runs as follows: (in C1CCCCC1) 374 nm; (in C1COCCO1) 396 nm; (in CC#N) 398 nm; (in CC(C)(C)O) 407 nm; (in CC(C)O) 412 nm; (in CCCCCC) 374 nm. For the same molecule, the emission maximum is, setting by setting: (in CCCCO) 411 nm; (in CCOC(C)=O) 394 nm; (in CN(C)C=O) 404 nm; (in CO) 412 nm; (in ClCCl) 398 nm; (in O) 424 nm.

`COc1ccc(-c2cn3ccc[n+]3[n-]2)cc1` gave an emission maximum (in ClCCl) of 413 nm.

Where the note is “in C1COCCO1”, `CC(=O)Nc1ccc(C2=N/C(=C\c3ccc(C#N)cc3)C(=O)O2)cc1` gave an emission maximum of 461 nm.

As for `O=C1Cc2ccc(cc2)CC(=O)Cc2ccc(c3nsnc23)C1`, the emission maximum reads like this: (in C1CCCCC1) 468 nm; (in CC#N) 495 nm; (in ClC(Cl)Cl) 488 nm.

In the case of `CCCCn1c2ccc(/C=C(\C#N)c3ccc([N+](=O)[O-])cc3)cc2c2cc(Cn3c(-c4ccc5c(c4)c4ccccc4n5CCCC)nc4ccccc43)ccc21`, the emission maximum (in C1CCOC1) turned out to be 539 nm; the emission maximum (in CC#N) is given as 580 nm; the emission maximum (in CCO) is given as 520 nm; the emission maximum (in CCOC(C)=O) stood at 528 nm; the emission maximum (in CN(C)C=O) was 581 nm; the emission maximum (in ClCCl) was 568 nm. Further, the emission maximum runs as follows: (in O) 570 nm; (in c1ccccc1) 505 nm.

The molecule `Cc1ccc(-c2c3nc(c(-c4ccc(C)cc4)c4ccc([nH]4)c(-c4ccc(OC(=O)C(C)c5ccccc5)cc4)c4nc(c(-c5ccc(C)cc5)c5ccc2[nH]5)C=C4)C=C3)cc1` (centres undefined) displayed an emission maximum (in ClCCl) of 653 nm.

`CN(C)c1ccc(-n2c(-c3ccc(C#N)cc3)nc3ccccc32)cc1` registered an emission maximum (in CC#N) of 586 nm.

As to `N#Cc1nc(N(Cc2ccc(F)cc2)Cc2ccc(F)cc2)c(C#N)nc1N(Cc1ccc(F)cc1)Cc1ccc(F)cc1`, for the setting “in ClC(Cl)Cl”, the emission maximum was 577 nm.

Turning to `C(=C\c1nc2ccccc2s1)/c1ccc(-c2nc3c4cccnc4c4ncccc4c3[nH]2)cc1`, the emission maximum reads like this: (in C1CCOC1) 469 nm; (in CC#N) 485 nm; (in CO) 488 nm; (in ClCCl) 472 nm.

Regarding `CC1=C(c2ccc(N(C)C)cc2)C(C)=[N+]2C1=C(c1c(-c3ccccn3)nc3ccccn13)c1c(C)cc(C)n1[B-]2(F)F`, for the setting “in ClCCl”, the emission maximum stood at 524 nm.

For `CN(C)c1ccc(-c2cccc3nsnc23)cc1`, where the note is “in ClCCl”, the emission maximum is on record as 635 nm.

With `CC[N+]1(CC)CN2C(=N1)C(C(=O)O)=Cc1cc(C)c(C)cc12`, the emission maximum (in O) was found to be 466 nm.

`c1ccc(-n2c3ccccc3c3cc(-c4cccc(-n5c6ccccc6c6ncccc65)c4)ccc32)cc1`: the emission maximum (in ClCCl) came to 360 nm.

Molecule `CC1=CC(/C=C/c2ccc(OCCCN=[N+]=[N-])cc2)=[N+]2C1=C(c1ccc(N(C)C)cc1)c1c(C)cc(C)n1[B-]2(F)F` gave an emission maximum (in CO) of 586 nm.

`O=C1CC(=O)Nc2cc(C(=O)O)ccc2N1`: the emission maximum (in CS(C)=O) stood at 407 nm.

As for `CC1(C)CC(/C=C/c2ccc(-n3ccnc3)cc2)=CC(=C(C#N)C#N)C1`, the emission maximum (in C1CCOC1) stood at 524 nm; the emission maximum (in CC#N) turned out to be 526 nm; the emission maximum (in CCO) is recorded as 520 nm; the emission maximum (in CCOC(C)=O) is given as 518 nm; the emission maximum (in ClCCl) was 504 nm; the emission maximum (in c1ccccc1) is listed as 511 nm.

Consider `CSC1=C2C=C(c3cc4n(c3)[B-](F)(F)[N+]3=CC=CC3=C4c3c(C)cc(C)cc3C)C(C)=[N+]2[B-](F)(F)n2c(C)ccc21`, for which the emission maximum reads like this: (in C1CCCCC1) 652 nm; (in CC#N) 740 nm; (in CC(C)=O) 694 nm; (in CCOC(C)=O) 664 nm; (in Cc1ccccc1) 663 nm.

Turning to `CN1C(=O)c2cccc3c(-n4c5ccccc5c5ccccc54)ccc(c23)C1=O`, the emission maximum is reported as 537 nm (in C1CCOC1), 440 nm (in CCCCCC), 489 nm (in ClC(Cl)Cl) and 556 nm (in ClCCl).

On to `Cc1ccc(/C=C/c2nc3ccccc3s2)cc1`, for which the emission maximum is listed as 390 nm (in C1CCCCC1) and 405 nm (in CO).

In the case of `CCN(CC)c1ccc2cc(-c3nc4cc(C(=O)Nc5cccc(C)c5)ccc4o3)c(=O)oc2c1`, under “in ClCCl”, the emission maximum stood at 495 nm.

Source of the values: the Deep4Chem optical property database.
